Experimental data as given in patent publication US20240109865A1, “INDAZOLE COMPOUNDS AS KINASE INHIBITORS” (TYRA BIOSCIENCES, INC., priority 2020, published 2024).

Columns and labels:
Experiment in all cases: Kinase assay, binding constants (Kd), kinase-tagged T7 phage, qPCR
FGFR3 = FGFR3 (Homo sapiens (Human), UniProt P22607)
Experimental: (§1) Kinase-tagged T7 phage strains were prepared in an E. coli host derived from the BL21 strain. E. coli were grown to log-phase and infected with T7 phage and incubated with shaking at 32° C. until lysis. The lysates were centrifuged and filtered to remove cell debris. Streptavidin-coated magnetic beads were treated with biotinylated small molecule ligands for 30 minutes at room temperature to generate affinity resins for kinase assays. The liganded beads were blocked with excess biotin and washed with blocking buffer SeaBlock (Pierce), […], 1 mM DTT to remove unbound ligand and to reduce non-specific binding.
(§2) Test compounds were prepared as 111λ stocks in 10000 DMS0. Kds were determined using an 11-point 3-fold compound dilution series with three DMSO control points. […] The compounds were then diluted directly into the assays such that the final concentration of DMSO was 0.9%. All reactions performed in polypropylene 384-well plate. Each was a final volume of 0.02 ml. […] The beads were then re-suspended in elution buffer (1×PBS, 0.05% Tween […] non-biotinylated affinity ligand) and incubated at room temperature with shaking for 30 minutes. The kinase concentration in the eluates was measured by qPCR.
(§3) Binding constants were calculated with a standard dose-response curve using the Hill equation: […]
(§4) The Hill Slope was set to −1. Curves were fitted using a non-linear least square fit with the Levenberg-Marquardt algorithm.

FGFR2 = FGFR2 (Homo sapiens (Human), UniProt P21802)
Experimental: as §1, §2, §3, §4

FGFR1 = FGFR1 (Homo sapiens (Human), UniProt P11362)
Experimental: as §1, §2, §3, §4

FGFR3 (V555M) = FGFR3 (V555M) (Homo sapiens (Human), UniProt P22607, V555M); details: V555M mutant
Experimental: as §1, §2, §3, §4

FGFR4 = FGFR4 (Homo sapiens (Human), UniProt P22455)
Experimental: as §1, §2, §3, §4

Sequence of FGFR4 (P22455 22-802): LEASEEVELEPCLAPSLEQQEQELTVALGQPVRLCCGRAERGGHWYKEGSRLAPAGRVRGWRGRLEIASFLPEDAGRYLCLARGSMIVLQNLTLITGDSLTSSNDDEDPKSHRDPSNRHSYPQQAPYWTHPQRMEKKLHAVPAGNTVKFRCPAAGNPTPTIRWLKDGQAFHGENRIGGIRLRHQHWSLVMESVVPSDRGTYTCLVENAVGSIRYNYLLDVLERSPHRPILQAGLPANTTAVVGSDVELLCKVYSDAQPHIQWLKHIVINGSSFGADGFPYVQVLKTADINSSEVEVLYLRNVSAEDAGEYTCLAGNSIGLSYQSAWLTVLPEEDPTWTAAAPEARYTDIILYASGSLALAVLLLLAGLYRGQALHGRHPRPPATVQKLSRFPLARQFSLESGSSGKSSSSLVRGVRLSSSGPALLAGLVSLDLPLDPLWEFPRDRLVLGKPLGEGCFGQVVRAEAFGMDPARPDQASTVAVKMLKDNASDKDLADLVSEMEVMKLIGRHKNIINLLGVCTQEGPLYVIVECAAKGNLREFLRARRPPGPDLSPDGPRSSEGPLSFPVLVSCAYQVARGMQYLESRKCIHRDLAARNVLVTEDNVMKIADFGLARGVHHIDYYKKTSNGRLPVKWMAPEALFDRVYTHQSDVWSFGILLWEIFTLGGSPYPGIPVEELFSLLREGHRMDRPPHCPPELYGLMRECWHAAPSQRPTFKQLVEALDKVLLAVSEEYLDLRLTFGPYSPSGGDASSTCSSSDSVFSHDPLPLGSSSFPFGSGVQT
Sequence of FGFR1 (P11362 22-822): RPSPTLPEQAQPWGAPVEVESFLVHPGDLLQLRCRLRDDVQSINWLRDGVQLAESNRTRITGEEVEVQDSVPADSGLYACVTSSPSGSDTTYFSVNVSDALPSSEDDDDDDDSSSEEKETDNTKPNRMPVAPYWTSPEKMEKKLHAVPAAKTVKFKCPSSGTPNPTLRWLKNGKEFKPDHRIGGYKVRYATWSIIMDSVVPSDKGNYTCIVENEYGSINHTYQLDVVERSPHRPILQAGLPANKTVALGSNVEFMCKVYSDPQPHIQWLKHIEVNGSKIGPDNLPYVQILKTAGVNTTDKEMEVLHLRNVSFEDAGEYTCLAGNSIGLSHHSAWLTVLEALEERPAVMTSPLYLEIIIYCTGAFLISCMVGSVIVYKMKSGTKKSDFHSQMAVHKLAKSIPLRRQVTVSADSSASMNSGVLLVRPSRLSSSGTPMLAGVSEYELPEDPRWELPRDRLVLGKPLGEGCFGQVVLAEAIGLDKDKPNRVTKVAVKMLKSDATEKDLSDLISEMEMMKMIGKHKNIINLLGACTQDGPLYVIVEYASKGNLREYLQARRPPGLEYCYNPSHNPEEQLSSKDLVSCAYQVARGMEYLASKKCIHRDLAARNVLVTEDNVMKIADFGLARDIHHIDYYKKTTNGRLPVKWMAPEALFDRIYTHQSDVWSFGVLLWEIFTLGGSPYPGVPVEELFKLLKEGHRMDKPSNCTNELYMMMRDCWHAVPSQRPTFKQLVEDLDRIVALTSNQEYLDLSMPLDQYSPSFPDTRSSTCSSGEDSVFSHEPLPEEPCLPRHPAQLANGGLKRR
Sequence of FGFR2 (P21802 22-821): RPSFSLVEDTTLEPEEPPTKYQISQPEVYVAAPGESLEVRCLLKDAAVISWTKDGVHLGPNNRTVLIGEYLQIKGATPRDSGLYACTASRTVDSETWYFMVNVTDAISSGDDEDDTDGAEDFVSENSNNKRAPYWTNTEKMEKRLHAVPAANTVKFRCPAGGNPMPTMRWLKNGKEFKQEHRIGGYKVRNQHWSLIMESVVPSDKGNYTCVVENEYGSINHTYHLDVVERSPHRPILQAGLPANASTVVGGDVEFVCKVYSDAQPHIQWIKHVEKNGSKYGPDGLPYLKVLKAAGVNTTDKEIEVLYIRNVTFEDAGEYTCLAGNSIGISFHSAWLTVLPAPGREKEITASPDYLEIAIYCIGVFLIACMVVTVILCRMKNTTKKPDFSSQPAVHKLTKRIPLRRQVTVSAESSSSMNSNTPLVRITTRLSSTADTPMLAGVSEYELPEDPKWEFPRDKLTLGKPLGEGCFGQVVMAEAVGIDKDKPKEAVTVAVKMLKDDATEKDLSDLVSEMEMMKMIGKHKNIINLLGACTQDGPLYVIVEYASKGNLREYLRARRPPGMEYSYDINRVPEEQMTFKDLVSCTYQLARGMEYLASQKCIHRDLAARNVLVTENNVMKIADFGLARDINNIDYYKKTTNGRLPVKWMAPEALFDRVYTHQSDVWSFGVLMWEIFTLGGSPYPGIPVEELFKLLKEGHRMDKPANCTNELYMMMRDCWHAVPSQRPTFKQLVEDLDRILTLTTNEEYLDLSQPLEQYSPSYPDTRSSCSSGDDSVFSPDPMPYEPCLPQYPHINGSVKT
Sequence of FGFR3 (P22607 23-806): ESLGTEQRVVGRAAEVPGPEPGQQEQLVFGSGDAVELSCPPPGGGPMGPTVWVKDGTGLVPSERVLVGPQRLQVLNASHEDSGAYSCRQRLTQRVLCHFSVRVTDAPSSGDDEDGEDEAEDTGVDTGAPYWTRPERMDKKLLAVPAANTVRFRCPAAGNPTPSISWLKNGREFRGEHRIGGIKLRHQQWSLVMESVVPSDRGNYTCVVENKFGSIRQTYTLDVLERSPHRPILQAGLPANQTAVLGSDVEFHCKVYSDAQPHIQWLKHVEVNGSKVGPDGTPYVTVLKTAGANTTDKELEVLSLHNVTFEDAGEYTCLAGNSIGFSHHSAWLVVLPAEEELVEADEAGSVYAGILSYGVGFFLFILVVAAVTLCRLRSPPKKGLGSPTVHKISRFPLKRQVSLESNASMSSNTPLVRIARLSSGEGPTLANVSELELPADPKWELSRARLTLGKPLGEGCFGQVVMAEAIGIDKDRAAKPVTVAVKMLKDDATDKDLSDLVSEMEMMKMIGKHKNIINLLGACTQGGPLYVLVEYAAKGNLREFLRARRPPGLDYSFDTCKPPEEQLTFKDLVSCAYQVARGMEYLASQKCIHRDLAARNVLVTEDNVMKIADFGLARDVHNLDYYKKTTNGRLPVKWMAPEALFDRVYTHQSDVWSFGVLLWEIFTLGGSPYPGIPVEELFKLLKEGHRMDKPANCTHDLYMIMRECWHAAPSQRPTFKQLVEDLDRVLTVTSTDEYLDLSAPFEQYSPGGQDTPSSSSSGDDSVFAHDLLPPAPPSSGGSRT
Sequence of FGFR3 (V555M) (P22607 23-806 V555M): as the sequence (P22607 23-806) above, with V533M counted along it

Compound	Kd (FGFR3) [nM]	Kd (FGFR2) [nM]	Kd (FGFR1) [nM]	Kd (FGFR3 (V555M)) [nM]	Kd (FGFR4) [nM]
C[C@@H](Oc1ccc2[nH]nc(-c3ccc(N4CC5(CNC5)C4)nc3)c2c1)c1c(Cl)cncc1Cl [Example 45, 3-[6-(2,6-diazaspiro[3.3]heptan-2-yl)-3-pyridyl]-5-[(1R)-1-(3,5-dichloro-4-pyridyl)ethoxy]-1H-indazole]	1 to 20	1 to 20	1 to 20	1 to 20	1 to 20
C[C@@H](Oc1ccc2[nH]nc(-c3cnc(Cl)nc3)c2c1)c1c(Cl)cncc1Cl [Example 59, 3-(2-Chloropyrimidin-5-yl)-5-[(1R)-1-(3,5-dichloro-4-pyridyl)ethoxy]-1H-indazole]	20 to 100	100 to 300	20 to 100	20 to 100	20 to 100
C[C@@H](Oc1ccc2[nH]nc(-c3cnc(N4CCCNCC4)nc3)c2c1)c1c(Cl)cncc1Cl [Example 61, 3-[2-(1,4-Diazepan-1-yl)pyrimidin-5-yl]-5-[(1R)-1-(3,5-dichloro-4-pyridyl)ethoxy]-1H-indazole]	1 to 20	20 to 100	1 to 20	1 to 20	1 to 20
C[C@@H](Oc1ccc2[nH]nc(-c3cnn(C4CCN(S(C)(=O)=O)CC4)c3)c2c1)c1c(Cl)cncc1Cl [Example 66, 5-[(1R)-1-(3,5-dichloro-4-pyridyl)ethoxy]-3-[1-(1-methylsulfonyl-4-piperidyl)pyrazol-4-yl]-1H-indazole]	1 to 20	1 to 20	1 to 20	1 to 20	1 to 20
C[C@@H](Oc1ccc2[nH]nc(-c3ccc(C4CCNCC4)nc3)c2c1)c1c(Cl)cncc1Cl [Example 69, 5-[(1R)-1-(3,5-dichloro-4-pyridyl)ethoxy]-3-[6-(4-piperidyl)-3-pyridyl]-1H-indazole]	1 to 20	1 to 20	1 to 20	1 to 20	1 to 20
C[C@@H](Oc1ccc2[nH]nc(-c3ccc(N4CC5(CCN(S(C)(=O)=O)CC5)OC4=O)nc3)c2c1)c1c(Cl)cncc1Cl [Example 76, 3-[5-[5-[(1R)-1-(3,5-dichloro-4-pyridyl)ethoxy]-1H-indazol-3-yl]-2-pyridyl]-8-methylsulfonyl-1-oxa-3,8-diazaspiro[4.5]decan-2-one]	1 to 20	20 to 100	20 to 100	1 to 20	1 to 20
C[C@@H](Oc1ccc2[nH]nc(-c3cnn(C4CCN(C(=O)CN(C)C)CC4)c3)c2c1)c1c(Cl)cncc1Cl [Example 81, 1-[4-[4-[5-[(1R)-1-(3,5-dichloro-4-pyridyl)ethoxy]-1H-indazol-3-yl]pyrazol-1-yl]-1-piperidyl]-2-(dimethylamino)ethanone]	1 to 20	1 to 20	1 to 20	1 to 20	1 to 20
CC(C)N1CCC(n2cc(-c3n[nH]c4ccc(O[C@H](C)c5c(Cl)cncc5Cl)cc34)cn2)CC1 [Example 83, 5-[(1R)-1-(3,5-dichloro-4-pyridyl)ethoxy]-3-[1-(1-isopropyl-4-piperidyl)pyrazol-4-yl]-1H-indazole]	1 to 20	1 to 20	1 to 20	1 to 20	20 to 100
CC(C)N1CC[C@@H](n2cc(-c3n[nH]c4ccc(O[C@H](C)c5c(Cl)cncc5Cl)cc34)cn2)C1 [Example 84, 5-[(1R)-1-(3,5-dichloro-4-pyridyl)ethoxy]-3-[(1R)-1-(1-isopropylpyrrolidin-3-yl)pyrazol-4-yl]-1H-indazole]	1 to 20	1 to 20	1 to 20	1 to 20	20 to 100
C[C@@H](Oc1ccc2[nH]nc(-c3cnn(C4CNC4)c3)c2c1)c1c(Cl)cncc1Cl [Example 85, 3-[1-(azetidin-3-yl)pyrazol-4-yl]-5-[(1R)-1-(3,5-dichloro-4-pyridyl)ethoxy]-1H-indazole]	1 to 20	1 to 20	1 to 20	1 to 20	1 to 20
CC(C)N1CC(n2cc(-c3n[nH]c4ccc(O[C@H](C)c5c(Cl)cncc5Cl)cc34)cn2)C1 [Example 86, 5-[(1R)-1-(3,5-dichloro-4-pyridyl)ethoxy]-3-[1-(1-isopropylazetidin-3-yl)pyrazol-4-yl]-1H-indazole]	1 to 20	1 to 20	1 to 20	1 to 20	1 to 20
CCN1CC[C@H](n2cc(-c3n[nH]c4ccc(O[C@H](C)c5c(Cl)cncc5Cl)cc34)cn2)C1 [Example 89, 5-[(1R)-1-(3,5-dichloro-4-pyridyl)ethoxy]-3-[1-[(3S)-1-ethylpyrrolidin-3-yl]pyrazol-4-yl]-1H-indazole]	1 to 20	1 to 20	1 to 20	1 to 20	20 to 100
C[C@@H](Oc1ccc2[nH]nc(-c3ccc(N4CC5(CCN5)C4)nc3)c2c1)c1c(Cl)cncc1Cl [Example 99, 3-[6-(1,6-diazaspiro[3.3]heptan-6-yl)-3-pyridyl]-5-[(1R)-1-(3,5-dichloro-4-pyridyl)ethoxy]-1H-indazole]	1 to 20	1 to 20	1 to 20	1 to 20	1 to 20
Cc1cc(-c2n[nH]c3ccc(O[C@H](C)c4c(Cl)cncc4Cl)cc23)cnc1N1CCOCC1 [Example 101, 4-[5-[5-[(1R)-1-(3,5-dichloro-4-pyridyl)ethoxy]-1H-indazol-3-yl]-3-methyl-2-pyridyl]morpholine]	1 to 20	20 to 100	20 to 100	1 to 20	1 to 20
C[C@@H](Oc1ccc2[nH]nc(-c3cnc(N4CCOCC4)c(C#N)c3)c2c1)c1c(Cl)cncc1Cl [Example 102, 5-[5-[(1R)-1-(3,5-dichloro-4-pyridyl)ethoxy]-1H-indazol-3-yl]-2-morpholino-pyridine-3-carbonitrile]	1 to 20	20 to 100	20 to 100	1 to 20	1 to 20
C[C@@H](Oc1ccc2[nH]nc(-c3ccc(N4CCOCC4)cn3)c2c1)c1c(Cl)cncc1Cl [Example 103, 4-[6-[5-[(1R)-1-(3,5-dichloro-4-pyridyl)ethoxy]-1H-indazol-3-yl]-3-pyridyl]morpholine]	1 to 20	20 to 100	1 to 20	1 to 20	1 to 20
Cc1cnnc(C)c1[C@@H](C)Oc1ccc2[nH]nc(-c3cnc(N4CCCC4)c(C#N)c3)c2c1 [Example 173, 5-[5-[(1R)-1-(3,5-dimethylpyridazin-4-yl)ethoxy]-1H-indazol-3-yl]-2-pyrrolidin-1-yl-pyridine-3-carbonitrile]	20 to 100		100 to 300	20 to 100	1 to 20
CCN1C2CC1CN(c1ccc(-c3n[nH]c4cc(OC)c(O[C@H](C)c5c(C)cnnc5C)cc34)cn1)C2 [Example 213, 3-(5-(5-((R)-1-(3,5-dimethylpyridazin-4-yl)ethoxy)-6-methoxy-1H-indazol-3-yl)pyridin-2-yl)-6-ethyl-3,6-diazabicyclo[3.1.1]heptane]	1 to 20		1 to 20	1 to 20	1 to 20
C[C@@H](Oc1ccc2[nH]nc(-c3ccc(N4CC5(CCOC5)C4)nc3)c2c1)c1c(Cl)cnnc1Cl [Example 223, (R)-2-(5-(5-(1-(3,5-dichloropyridazin-4-yl)ethoxy)-1H-indazol-3-yl)pyridin-2-yl)-6-oxa-2-azaspiro[3.4]octane]	20 to 100	100 to 300		20 to 100	
